Data reported in patent US7589113B2, “Substituted oxadiazole compounds and their use as opioid receptor ligands” (Gruenenthal GmbH, priority 2005, dated 2009).

Key:
Noradrenalin reuptake = biological target: T1, Noradrenalin reuptake (Rattus norvegicus, UniProt Q63380); experiment: Noradrenalin (NA) reuptake inhibition in rat hypothalamus synaptosomes; assay type: biochemical
T1 construct: these vesicular particles are isolated from the hypothalamus of male rat brains; from tissue; host or cells: hypothalamus of male rat brains, synaptosomes (P2 fraction)
Experimental: (§1) Noradrenalin (NA) and Serotonin (5HT) Reuptake Inhibition
(§2) In order to be able to carry out these in vitro studies, synaptosomes are freshly isolated from rat brain regions. A “P2” fraction is used, which is prepared according to the instructions given by Gray and Whittaker (E. G. Gray and V. P. Whittaker (1962) J. Anat. 76, 79-88). For NA uptake, these vesicular particles are isolated from the hypothalamus of male rat brains.
(§3) A detailed description of the method may be found in the literature (M. Ch. Frink, H.-H. Hennies, W. Engiberger, M. Haurand and B. Wilffert (1996) Arzneim.-Forsch./Drug Res. 46 (III), 11, 1029-1036).

human μ opiate receptor = biological target: T2, human μ opiate receptor (Homo sapiens, UniProt P35372); experiment: Affinity for human μ opiate receptor ([3H]-naloxone displacement, SPA); assay type: binding; details: for inhibition at 1 µM / μ opioid receptor, % inhibition [1 μM]: 1 μM test substance, inhibition of specific [3H]-naloxone binding; for inhibition at 1 µM: read-out: μ opioid receptor, % inhibition [1 μM]; for Ki: Cheng-Prusoff conversion from IC50, read-out: μ opioid receptor, Ki
T2 construct: purchased PerkinElmer Life Sciences, Zaventem, Belgium RB-HOM; host or cells: CHO-K1 cells (membrane preparation)
Experimental: Method for Determining Affinity for Human μ Opiate Receptor
Receptor affinity for the human μ opiate receptor is determined in a homogeneous batch in microtitre plates. To this end, dilution series of the substances to be tested are incubated in a total volume of 250 μl for 90 minutes at room temperature with a receptor membrane preparation (15-40 μg protein/250 μl incubation batch) of CHO-K1 cells which express the human μ-opiate receptor (RB-HOM receptor membrane preparation from PerkinElmer Life Sciences, Zaventem, Belgium) in the presence of 1 nmol/l of the radioactive ligand [^3H]-naloxone (NET719, from PerkinElmer Life Sciences, Zaventem, Belgium) and 1 mg of WGA-SPA beads (wheat germ agglutinin SPA beads from Amersham/Pharmacia, Freiburg, Germany). 50 mmol/l of tris HCl supplemented with 0.06% bovine serum albumin is used as the incubation buffer. Nonspecific binding is determined by additionally adding 100 μmol/l of naloxone. Once the ninety minute incubation time has elapsed, the microtitre plates are centrifuged off for 20 minutes at 1000 g and the radioactivity measured in a β counter (Microbeta-Trilux, from PerkinElmer Wallac, Freiburg, Germany). The percentage displacement of the radioactive ligand from its binding to the human μ opiate receptor is determined at a concentration of the test substances of 1 μmol/l and stated as percentage inhibition of specific binding. On the basis of the percentage displacement brought about by different concentrations of the test substances, IC50 inhibition concentrations which result in a 50% displacement of the radioactive ligand are calculated. Ki values for the test substances are obtained by conversion using the Cheng-Prusoff equation.

Serotonin reuptake = biological target: T3, Serotonin reuptake (Rattus norvegicus, UniProt P31652); experiment: Serotonin (5HT) reuptake inhibition in rat brain synaptosomes; assay type: biochemical
T3 construct: synaptosomes are freshly isolated from rat brain regions; from tissue; host or cells: rat brain synaptosomes (P2 fraction)
Experimental: as §1, §2, §3

T2 sequence (P35372 whole entry): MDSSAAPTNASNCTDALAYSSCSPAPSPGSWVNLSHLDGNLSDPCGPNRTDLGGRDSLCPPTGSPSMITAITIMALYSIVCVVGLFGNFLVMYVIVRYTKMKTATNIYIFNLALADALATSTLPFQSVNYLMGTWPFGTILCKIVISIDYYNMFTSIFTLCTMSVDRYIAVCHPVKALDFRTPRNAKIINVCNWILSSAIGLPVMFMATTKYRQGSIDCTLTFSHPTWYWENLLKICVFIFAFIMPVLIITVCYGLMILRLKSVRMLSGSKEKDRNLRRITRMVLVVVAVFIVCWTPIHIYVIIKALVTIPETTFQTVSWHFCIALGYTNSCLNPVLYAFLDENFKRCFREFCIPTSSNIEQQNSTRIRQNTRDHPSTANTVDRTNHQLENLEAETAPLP
T1 sequence (Q63380 1-617): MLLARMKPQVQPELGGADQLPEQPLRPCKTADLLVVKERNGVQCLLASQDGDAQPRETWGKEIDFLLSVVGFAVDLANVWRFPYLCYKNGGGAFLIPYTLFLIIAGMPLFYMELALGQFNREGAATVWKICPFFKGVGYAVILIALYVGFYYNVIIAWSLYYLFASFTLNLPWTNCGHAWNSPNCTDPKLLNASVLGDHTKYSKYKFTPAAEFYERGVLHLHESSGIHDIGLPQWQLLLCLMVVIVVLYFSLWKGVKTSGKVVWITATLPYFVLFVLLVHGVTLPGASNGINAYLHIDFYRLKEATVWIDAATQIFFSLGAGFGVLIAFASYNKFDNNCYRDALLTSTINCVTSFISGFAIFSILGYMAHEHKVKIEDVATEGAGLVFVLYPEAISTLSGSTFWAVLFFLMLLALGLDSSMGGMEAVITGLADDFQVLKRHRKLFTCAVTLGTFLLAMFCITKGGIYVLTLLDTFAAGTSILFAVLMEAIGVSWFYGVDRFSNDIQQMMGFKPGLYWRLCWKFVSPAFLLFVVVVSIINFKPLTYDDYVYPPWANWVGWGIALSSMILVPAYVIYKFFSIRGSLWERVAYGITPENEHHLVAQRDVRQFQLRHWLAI
T3 sequence (P31652 whole entry): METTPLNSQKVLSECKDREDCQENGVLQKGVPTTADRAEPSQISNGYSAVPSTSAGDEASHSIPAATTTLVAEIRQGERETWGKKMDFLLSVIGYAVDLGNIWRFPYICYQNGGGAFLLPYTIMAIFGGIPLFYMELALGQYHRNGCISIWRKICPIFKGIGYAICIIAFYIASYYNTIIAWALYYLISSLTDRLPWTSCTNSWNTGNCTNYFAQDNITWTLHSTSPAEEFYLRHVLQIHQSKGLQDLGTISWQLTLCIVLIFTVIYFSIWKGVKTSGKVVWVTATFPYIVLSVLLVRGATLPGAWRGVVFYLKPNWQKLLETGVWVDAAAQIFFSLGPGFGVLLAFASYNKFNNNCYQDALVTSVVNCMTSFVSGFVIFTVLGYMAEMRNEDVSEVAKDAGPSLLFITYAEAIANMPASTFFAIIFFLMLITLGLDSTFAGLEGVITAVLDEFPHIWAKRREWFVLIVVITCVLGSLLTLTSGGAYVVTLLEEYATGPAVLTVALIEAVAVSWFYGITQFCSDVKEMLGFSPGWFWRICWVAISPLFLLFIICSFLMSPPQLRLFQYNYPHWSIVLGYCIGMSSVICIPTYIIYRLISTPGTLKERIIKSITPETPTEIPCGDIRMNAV

| SMILES | inhibition at 1 µM (human μ opiate receptor) | also measured |
| --- | --- | --- |
| CN(C)C(c1ccccc1)C1CCC(Cc2nc(Cc3ccc(Cl)cc3)no2)CC1 (stereo not drawn) [Example 43, (4-((3-(4-chlorobenzyl)-1,2,4-oxadiazol-5-yl)methyl)cyclohexyl)-N,N-dimethyl(phenyl)methanamine] | 83% | inhibition at 10 µM (Noradrenalin reuptake): 95%; Ki (human μ opiate receptor): 44 nM; inhibition at 10 µM (Serotonin reuptake): 95% |
| COc1ccc(Cc2noc(CC3CCC(C(c4ccccc4)N(C)C)CC3)n2)cc1 (stereo not drawn) [Example 44, (4-((3-(4-methoxybenzyl)-1,2,4-oxadiazol-5-yl)methyl)cyclohexyl)-N,N-dimethyl(phenyl)methanamine] | – | inhibition at 10 µM (Noradrenalin reuptake): 100%; μ opioid receptor, % inhibition [1 μM] (human μ opiate receptor): 75%; Ki (human μ opiate receptor): 72 nM; inhibition at 10 µM (Serotonin reuptake): 99% |
| CN(C)C(c1ccc(F)cc1)C1CCC(=Cc2nc(-c3cccc(Cl)c3Cl)no2)CC1 (stereo not drawn) [Example 55, [{4-[3-(2,3-dichlorophenyl)-[1,2,4]oxadiazol-5-ylmethylene]-cyclohexyl}-(4-fluorophenyl)-methyl]-dimethylamine] | 53% | – |
| CN(C)C(c1ccccc1)C1CCC(=Cc2nc(-c3ccccc3)no2)CC1 (stereo not drawn) [Example 69, dimethyl-{phenyl-[4-(3-phenyl-[1,2,4]oxadiazol-5-ylmethylene)-cyclohexyl]-methyl}-amine] | 40% | – |
| COc1ccc(Cc2noc(C=C3CCC(C(c4ccccc4)N(C)C)CC3)n2)cc1 (stereo not drawn) [Example 79, ({4-[3-(4-methoxybenzyl)-[1,2,4]oxadiazol-5-ylmethylene]-cyclohexyl}-phenylmethyl)-dimethylamine] | 43% | – |
| Cc1cccc(-c2noc(C=C3CCC(C(c4ccccc4)N(C)C)CC3)n2)c1 (stereo not drawn) [Example 135, dimethyl-{phenyl-[4-(3-m-tolyl-[1,2,4]oxadiazol-5-ylmethylene)-cyclohexyl]-methyl}-amine] | 44% | – |
| CN(C)C(c1ccccc1)C1CCC(C=Cc2nc(Cc3ccc(Cl)cc3)no2)CC1 (stereo not drawn) [Example 149, [(4-{2-[3-(4-chlorobenzyl)-[1,2,4]oxadiazol-5-yl]-vinyl}-cyclohexyl)-phenylmethyl]-dimethylamine] | 42% | – |
| CN(C)C(c1ccccc1)C1CCC(C=Cc2nc(Cc3ccc(Cl)cc3)no2)CC1 (stereo not drawn) [Example 150, [(4-{2-[3-(4-chlorobenzyl)-[1,2,4]oxadiazol-5-yl]-vinyl}-cyclohexyl)-phenylmethyl]-dimethylamine] | – | μ opioid receptor, % inhibition [1 μM] (human μ opiate receptor): 56% |
| CN(C)C(c1cccs1)C1CCC(C=Cc2nc(Cc3ccc(Cl)cc3)no2)CC1 (stereo not drawn) [Example 155, [(4-{2-[3-(4-chlorobenzyl)-[1,2,4]oxadiazol-5-yl]-vinyl}-cyclohexyl)-thiophen-2-yl-methyl]-dimethylamine] | 52% | – |
| Cc1cccc(-c2noc(C=CC3CCC(C(c4ccccc4)N(C)C)CC3)n2)c1 (stereo not drawn) [Example 183, dimethyl-(phenyl-{4-[2-(3-m-tolyl-[1,2,4]oxadiazol-5-yl)-vinyl]-cyclohexyl}-methyl)-amine] | 40% | – |
| Cc1cccc(-c2noc(C=CC3CCC(C(c4cccs4)N(C)C)CC3)n2)c1 (stereo not drawn) [Example 195, dimethyl-(thiophen-2-yl-{4-[2-(3-m-tolyl-[1,2,4]oxadiazol-5-yl)-vinyl]-cyclohexyl}-methyl)-amine] | 48% | – |
| Cc1ccc(-c2noc(C=CC3CCC(C(c4cccs4)N(C)C)CC3)n2)n1C (stereo not drawn) [Example 224, [(4-{2-[3-(1,5-dimethyl-1H-pyrrol-2-yl)-[1,2,4]oxadiazol-5-yl]-vinyl}-cyclohexyl)-thiophen-2-yl-methyl]-dimethylamine] | 54% | – |
| CN(C)C(c1cccc(F)c1)C1CCC(Cc2nc(-c3ccccc3)no2)CC1 (stereo not drawn) [Example 232, {(3-fluorophenyl)-[4-(3-phenyl-[1,2,4]oxadiazol-5-ylmethyl)-cyclohexyl]-methyl}-dimethylamine] | 41% | – |
| CN(C)C(c1ccccc1)C1CCC(Cc2nc(-c3ccccc3)no2)CC1 (stereo not drawn) [Example 234, dimethyl-{phenyl-[4-(3-phenyl-[1,2,4]oxadiazol-5-ylmethyl)-cyclohexyl]-methyl}-amine] | 64% | – |
| COc1ccc(Cc2noc(CC3CCC(C(c4ccccc4)N(C)C)CC3)n2)cc1 (stereo not drawn) [Example 239, ({4-[3-(4-methoxybenzyl)-[1,2,4]oxadiazol-5-ylmethyl]-cyclohexyl}-phenylmethyl)-dimethylamine] | 66% | – |
| CN(C)C(c1ccccc1)C1CCC(Cc2nc(-c3cccc(Cl)c3)no2)CC1 (stereo not drawn) [Example 243, ({4-[3-(3-chlorophenyl)-[1,2,4]oxadiazol-5-ylmethyl]-cyclohexyl}-phenylmethyl)-dimethylamine] | 55% | Ki (human μ opiate receptor): 320 nM |
| CN(C)C(c1ccccc1)C1CCC(Cc2nc(-c3cccc(Cl)c3Cl)no2)CC1 (stereo not drawn) [Example 246, ({4-[3-(2,3-dichlorophenyl)-[1,2,4]oxadiazol-5-ylmethyl]-cyclohexyl}-phenylmethyl)-dimethylamine] | 56% | – |
| Cc1cccc(-c2noc(CC3CCC(C(c4ccccc4)N(C)C)CC3)n2)c1 (stereo not drawn) [Example 258, dimethyl-{phenyl-[4-(3-m-tolyl-[1,2,4]oxadiazol-5-ylmethyl)-cyclohexyl]-methyl}-amine] | 53% | – |
| COc1ccc(Cc2noc(CCC3CCC(C(c4ccccc4)N(C)C)CC3)n2)cc1 (stereo not drawn) [Example 269, [(4-{2-[3-(4-methoxybenzyl)-[1,2,4]oxadiazol-5-yl]-ethyl}-cyclohexyl)-phenylmethyl]-dimethylamine] | 43% | – |
| CN(C)C(c1ccccc1)C1CCC(CCc2nc(Cc3ccc(Cl)cc3)no2)CC1 (stereo not drawn) [Example 273, [(4-{2-[3-(4-chlorobenzyl)-[1,2,4]oxadiazol-5-yl]-ethyl}-cyclohexyl)-phenylmethyl]-dimethylamine] | 68% | – |
| CN(C)C(c1ccccc1)C1CCC(CCc2nc(-c3ccc(F)cc3F)no2)CC1 (stereo not drawn) [Example 281, [(4-{2-[3-(2,4-difluorophenyl)-[1,2,4]oxadiazol-5-yl]-ethyl}-cyclohexyl)-phenylmethyl]-dimethylamine] | 69% | – |
| Cc1cccc(-c2noc(CCC3CCC(C(c4ccccc4)N(C)C)CC3)n2)c1 (stereo not drawn) [Example 296, dimethyl-(phenyl-{4-[2-(3-m-tolyl-[1,2,4]oxadiazol-5-yl)-ethyl]-cyclohexyl}-methyl)-amine] | 45% | – |
| CN(C)C(c1ccccc1)C1CCC(CCc2nc(-c3cccc(Cl)c3Cl)no2)CC1 (stereo not drawn) [Example 304, [(4-{2-[3-(2,3-dichlorophenyl)-[1,2,4]oxadiazol-5-yl]-ethyl}-cyclohexyl)-phenylmethyl]-dimethylamine] | 51% | – |
